Values quoted from earlier work as cited in US20230405042A1, “Compositions to Modify Intestinal Nutrient Absorption, Methods of Making and Uses Thereof” (McMaster University, priority 2022, published 2023).

Test system: rodents
Conditions: oral delivery or injection in rodents

In the case of `C[C@@H](O)C(=O)O` [D-lactate], the Liver glycogen formation is listed as “leads to glycogen deposition in the liver”.

In the case of `C[C@H](O)C(=O)O` [L-lactate], the Liver glycogen formation is given as “hardly forms any liver glycogen”.
